Where a name gives a salt, the structure may show the parent alone. Read-outs that look alike come from different tables or passages of the source.
Assays:
[1] = Toxicity (LD50; Litchfield and Wilcoxon); details: in vivo
Description: Toxicity: Litchfield J. T. and Wilcoxon: J. Pharmacol. Sci 54 (1965) 888.

[2] = Hot plate test (analgesia); format: in vivo, rats; details: for ED50: Rattus norvegicus
Experimental: (§1) The analgesic effect was tested on the hot-plate and algolytic tests.
Hot plate test: Woolfe and McDonald J. Pharm. 80, 300 (1944) modified by Porszasz and Herr: Kiserletes Orvostudomany 2, 292 (1950).

[3] = rat, in vivo
[4] = dog, in vivo
Description: Beagles are much more sensitive to CNS effects than rats, Rhesus monkeys and man.

[5] = Analgesic potency compared with Probon, dog; format: in vivo
[6] = Inhibition of the CNS effects of Probon; details: in vivo
[7] = Analgesic potency compared with Probon, rat; format: in vivo
[8] = Algolytic test (analgesia); format: in vivo; details: for Algolytic test ED100: p.o.
Experimental: as §1
Algolytic test: J. Knoll et. al: Animal and Clinical Pharmacological Techniques in Drug Evaluation Eds. Siegler, P. E. and Meyer J. II. Year Book Medical Pub. Chicago (1967) pages 305-321.

[9] = s.c.; Knoll et al. 1971; cited from earlier work
[10] = s.c.; Knoll et al. 1971; cited from earlier work; remark: listed apart in the source
[11] = po, Table IV, rats, p.o., read-out: LD50 rats p.o.
[12] = sc, Table IV, rats, s.c., read-out: LD50 rats s.c.
[13] = Table I, route not given, read-out: LD50
[14] = sc, Table IV, rats, s.c., read-out: Hot plate test ED50 s.c.
[15] = iv, Table III, i.v., read-out: LD50 i.v.
[16] = po, Table III, p.o., read-out: LD50 p.o.
[17] = sc, Table III, s.c., read-out: LD50 s.c.
[18] = po, Table II, p.o., read-out: Hot plate test ED50
[19] = po, Table III, p.o., read-out: ED50 hot-plate p.o.
[20] = po, Table IV, rats, p.o., read-out: Hot plate test ED50 p.o.
[21] = sc, Table III, s.c., read-out: ED50 hot-plate s.c.
[22] = iv, Table III, i.v., read-out: ED50 hot-plate i.v.
[23] = iv, Table IV, rats, i.v., read-out: Hot plate test ED50 i.v.
[24] = Table IV, rats, i.v., read-out: LD50 rats i.v.

SMILES: CCCc1c(C)nc2cccc(C)n2c1=O.Cl [2,6-dimethyl-3-n-propyl-4-oxo-4H-pyrido[1,2-a]pyrimidine hydrochloride]
- LD50 [1, 11]: 1000 mg/kg
- LD50 [1, 12]: 1200 mg/kg
- LD50 [1, 13]: 316 µmol/kg
- ED50 [2, 14]: 48 mg/kg

SMILES: CCc1c(C)nc2cccc(C)n2c1=O [2,6-dimethyl-3-ethyl-4-oxo-4H-pyrido[1,2-a]pyrimidine]
- CNS symptoms [3]: failing to elicit the CNS symptoms
- CNS symptoms [4]: failing to elicit the CNS symptoms
- analgesic potency compared with Probon [5]: more potent analgesic than Probon
- inhibition of the CNS effects of Probon [6]: strongly inhibit the CNS effects of Probon
- analgesic potency compared with Probon [7]: more potent analgesic than Probon

SMILES: CCc1c(C)nc2cccc(C)n2c1=O.Cl [Compound A, 2,6-dimethyl-3-ethyl-4-oxo-4H-pyrido[1,2-a]pyrimidine hydrochloride]
- LD50 [1, 15]: 190 mg/kg
- LD50 [1, 16]: 690 mg/kg
- LD50 [1, 17]: 520 mg/kg
- LD50 [1, 13]: 796 µmol/kg
- ED50 [2, 18]: 68 mg/kg
- ED50 [2, 19]: 68 mg/kg
- ED50 [2, 20]: 68 mg/kg
- ED50 [2, 21]: 74 mg/kg
- ED50 [2, 14]: 74 mg/kg
- ED50 hot-plate p.o. ([2]; Table III, p.o., hydrochloride): 58 mg/kg
- algolytic (+5mg./kg morphine), result in words ([8]; Table III): effective per se
- ED50 algolytic (+5mg./kg morphine) ([8]; Table III, s.c.): 8.6 mg/kg
- ED100 ([8]; po, Table II): 420 mg/kg
- ED50 ([8]; sc): 98 mg/kg

SMILES: CCc1c(C)nc2ccccn2c1=O [Compound B, 2-methyl-3-ethyl-4-oxo-4H-pyrido[1,2-a]pyrimidine.HCl]
- LD50 [1, 15]: 280 mg/kg
- LD50 [1, 16]: 1000 mg/kg
- LD50 [1, 17]: 620 mg/kg
- LD50 [1, 13]: 1070 µmol/kg
- ED50 [2, 22]: 100 mg/kg
- ED50 [2, 23]: 100 mg/kg
- ED50 [2, 18]: 330 mg/kg
- ED50 [2, 19]: 300 mg/kg
- ED50 [2, 20]: 300 mg/kg
- ED50 [2, 21]: 180 mg/kg
- ED50 [2, 14]: 180 mg/kg
- Algolytic test ED100 ([8]; Table II): cannot be achieved
- ED50 algolytic (+5mg./kg morphine) ([8]; Table III, i.v.): 2.75 mg/kg

SMILES: CCc1c(C)nc2ccc(C)cn2c1=O [2,7-dimethyl-3-ethyl-4-oxo-4H-pyrido[1,2-a]pyrimidine . HCl]
- LD50 [1, 11]: 900 mg/kg
- LD50 [1, 12]: 800 mg/kg
- LD50 [1, 24]: 175 mg/kg
- ED50 [2, 23]: 75 mg/kg
- ED50 [2, 20]: 500 mg/kg
- ED50 [2, 14]: 150 mg/kg

SMILES: CCCCc1c(C)nc2cccc(C)n2c1=O.Cl [2,6-dimethyl-3-n-butyl-4-oxo-4H-pyrido[1,2-a]pyrimidine hydrochloride]
- LD50 [1, 11]: 1100 mg/kg
- ED50 [2, 20]: 340 mg/kg

SMILES: CCc1nc2cccc(C)n2c(=O)c1C.Cl [3,6-dimethyl-2-ethyl-4-oxo-4H-pyrido[1,2-a]pyrimidine hydrochloride]
- LD50 [1, 13]: 120 µmol/kg

SMILES: CCCCc1c(C)nc2ccccn2c1=O [2-methyl-3-n-butyl-4-oxo-4H-pyrido[1,2-a]pyrimidine . HCl]
- LD50 [1, 11]: 1100 mg/kg
- ED50 [2, 20]: 251 mg/kg

SMILES: CCCc1c(C)nc2ccccn2c1=O.Cl [2-methyl-3-n-propyl-4-oxo-4H-pyrido[1,2-a]pyrimidine hydrochloride]
- LD50 [1, 13]: 502 µmol/kg

SMILES: Cc1nc2cccc(C)n2c(=O)c1C.Cl [2,3,6-trimethyl-4-oxo-4H-pyrido[1,2-a]pyrimidine hydrochloride]
- LD50 [1, 13]: 780 µmol/kg
- LD50 [1, 24]: 175 mg/kg
- ED50 [2, 20]: 87 mg/kg

SMILES: CCc1c(C)nc2ccc(Cl)cn2c1=O.Cl [2-methyl-3-ethyl-7-chloro-4-oxo-4H-pyrido[1,2-a]pyrimidine hydrochloride]
- LD50 [1, 11]: 1100 mg/kg
- ED50 [2, 20]: 98 mg/kg

SMILES: CCOC(=O)c1c[n+](C)c2n(c1=O)C(C)CCC2 (stereo not shown) [Probon, 1,6-dimethyl-3-ethoxycarbonyl-4-oxo-4H-6,7,8,9-tetrahydro-pyrido[1,2-a]pyrimidinium-methosulfate, reference compound]
- LD50 ([1]; iv, read-out: LD50 rats i.v.): 220 mg/kg
- LD50 ([1]; po, read-out: LD50 rats p.o.): 1600 mg/kg
- LD50 ([1]; read-out: LD50): 607 µmol/kg
- ED50 [2, 23]: 50 mg/kg
- ED50 [2, 20]: 220 mg/kg
- dose causing inhibition of the conditioned reflex [9]: ≥ 250 mg/kg
- dose causing death of the animal ([4]; po): 300 mg/kg
- oral dose at which disturbances of coordination and behavior, ataxia appear ([4]; po): above 100 mg./kg. body weight
- oral dose level at which CNS symptoms are very marked ([4]; po): 150 to 200 mg/kg
- dose eliciting characteristic desynchronization of the EEG [10]: ≥ 250 mg/kg

SMILES: CCc1c(C)nc2cc(C)cc(C)n2c1=O [Compound C, 2,6,8-trimethyl-3-ethyl-4-oxo-4H-pyrido[1,2-a]pyrimidine.HCl]
- LD50 [1, 15]: 120 mg/kg
- LD50 [1, 16]: 1500 mg/kg
- LD50 [1, 17]: 820 mg/kg
- ED50 [2, 22]: 49 mg/kg
- ED50 [2, 23]: 49 mg/kg
- ED50 [2, 18]: 580 mg/kg
- ED50 [2, 19]: 580 mg/kg
- ED50 [2, 20]: 580 mg/kg
- ED50 [2, 21]: 120 mg/kg
- ED50 [2, 14]: 120 mg/kg
- Algolytic test ED100 ([8]; Table II): cannot be achieved

SMILES: CCc1c(C)nc2c(C)cccn2c1=O.Cl [2,9-dimethyl-3-ethyl-4-oxo-4H-pyrido[1,2-a]pyrimidine HCl]
- LD50 [1, 11]: 820 mg/kg
- ED50 [2, 20]: 310 mg/kg
